Experimental data published in patent publication US11786507B2, “Methods of treating HIV-associated neurological disorders (HAND)” (priority 2020, dated 2023).

Assays:
iTat mice = assay: Open Field Test (OPT), locomotor activity; format: in vivo, mouse; conditions: PAM 15 mg/kg/day s.c. vs DMSO
Text: (§1) Doxycycline (Dox)-inducible and astrocyte-specific HIV-1 Tat-transgenic mice (iTat) were generated as previously described.^38 Wild-type (Wt, C57BL/6) and α7 nAChR knockout mice (α7^−/−, B6.129S7-Chrna^7tm1Ba/J) were purchased from the Jackson Laboratory (Bar Harbor, ME). All the animal procedures were approved by the Institutional Animal Care and Use Committee. Mice were housed with a 12-hour light and 12-hour dark photoperiod and provided water and food ad libitum. α7^−/− iTat mice were generated by cross breeding iTat mice with α7^−/− mice. α7^−/− genotyping was slightly modified with the JumpStart™ Taq DNA Polymerase-based PCR (JumpStart™ Taq DNA Polymerase, Sigma, catalog #D9307). […] Mice of 10-14 weeks old with body weights of 20-35 grams were fed with Dox-containing diet (0.625 g/kg, Envigo, catalog #TD.01306) as stated.
Open Field Test (OPT) and Morris Water Maze (MWZ) were performed sequentially using a computerized video tracking system (Anymaze, Stoelting) to determine the spontaneous locomotor activity and spatial learning and memory, respectively. For OPT, each mouse was allowed to move freely around a clear acrylic chamber (40.5×40.5×30.5 cm) for 10 minutes. Travel distance and maximum speed was determined by the AnyMaze software. For MWZ, a circle pool (1.2 m diameter) surrounded with a curtain was divided into four equal quadrants, and four signs with different shape were fixed onto the middle of each quadrant wall above the opaque water (24±1° C.). A hidden platform (1.5 cm below water surface) was put into a certain quadrant. Two stages consisting of 5-day training and probe test were carried out. In the training stage, four trials with a 15-20 minute interval were conducted in the every-day training, and for each trial mice were allowed to freely seek the platform within 90 seconds right after they were randomly put into one quadrant facing to the pool wall. If the mice found the platform within 90 seconds, 10 seconds would be added to allow them staying on the platform for memorizing, however, if failed, they would be directed toward the platform and allowed to stay on it for 15 seconds. Mice that were immobile or floating and unable to find the platform during the training stages were excluded from the experiments. Probe test was carried out on the next day following the 5-day training stage with a 60 seconds trial, and the platform was removed to prevent the mice from climbing onto it during the testing. One day after the behavioral tests, mice were euthanized and the brains were harvested.
To determine if α7 nAChR is involved in HAND, iTat mice were fed with Dox-containing food pellets for 7 days, injected s.c. with a well-studied and highly specific positive allosteric modulator (PAM) PNU-120596 of α7 nAChR^73,74 […], and then subjected to open field test (OPT) for locomotor activity on day 14, and Morris Water Maze test (MWZ) for learning and spatial memory on day 15-20, and euthanized to harvest tissues on day 21 (FIG. 1A). Dox-containing food pellet feeding and PAM injection continued during the next 7 days of behavioral tests. To minimize the effects of injection on behavioral tests, PAM was injected 5 hours after each behavioral test.

MAPK signaling pathways = assay: Western blotting of total and phosphorylated p38, JNK, ERK in cortex and hippocampus; format: in vivo, mouse; conditions: PAM 15 mg/kg/day s.c.
Text: as §1
A RIPA buffer (50 mM Tris.HCl, pH 8.0, 280 mM NaCl, 0.5% NP-40, 1% C24H39NaO4, 0.2 mM EDTA, 2 mM EGTA and 10% glycerol) supplemented with protease inhibitors (Millipore-Sigma, catalog #S8830) and phosphatase inhibitors (Millipore-Sigma, catalog #4906845001) was used to lyse the brain tissues and cultured cells with brief sonication on ice. Protein concentrations of the lysates were determined using a Bio-Rad DC protein assay kit (Bio-Rad, catalog #5000111). Lysates were denatured in the SDS-PAGE loading buffer at 100° C. for 10 min, then electrophoretically separated by 8-15% SDS-PAGE, blotted onto 0.45 μm polyvinylidene fluoride membrane (GE Healthcare Life Sciences, catalog #10600023), and probed using appropriate antibodies against PSD-95 (Abcam, catalog #ab18258, and 1:2000 dilution), SYP (Abcam, catalog #ab8049, and 1:1000 dilution), Iba-1 (Wako, catalog #016-20001, and 1:500 dilution) and GFAP (DAKO, catalog #z330s, and 1:2000 dilution), p-p38 (Santa Cruz, catalog #sc-166182, and 1:1000 dilution), p38 (Santa cruz, catalog #sc-535, and 1:1000 dilution), p-JNK (Santa cruz, catalog #sc-6254, and 1:1000 dilution), JNK (Santa cruz, catalog #sc-571, and 1:1000 dilution), p-ERK (Santa cruz, catalog #sc-7383, and 1:1000 dilution), and ERK (Santa cruz, catalog #sc-514302, and 1:1000 dilution), α7 nAChR (Alomone, catalog #ANC-007, and 1:1000 dilution) and β-actin (Sigma-Aldrich, catalog #A1978, and 1:2000 dilution). A Bio-Rad ChemicDoc imaging system (Bio-Rad) and Image J were used for image capturing and analysis, respectively.
It was next determined which MAPK signaling pathways were responsive to PAM neuroprotective effects against Tat-induced neuropathologies. Both CORT and HIP were analyzed for expression and phosphorylation of p38, JNK, and ERK.

α7 nAChR = α7 nAChR expression in brain tissue (Western blotting, immunofluorescence); format: in vivo, mouse
Protocol: FIG. 11A-FIG. 11E show the α7 nAChR expression in the brain, cortical neurons, microglia, and astrocytes in response to Tat and PAM. Western blotting was performed in the same samples of FIG. 1D (FIG. 11A & FIG. 11B, mouse brain tissue, n=6/group, three males, and three females) and FIG. 4A (FIG. 11D & FIG. 11E, primary cells, and n=3/group) using an anti-α7 nAChR antibody. Immunofluorescent staining (FIG. 11C, scale bars 20 μm) of the brain tissues was also performed using an anti-α7 nAChR antibody. p<0.05 was considered significant and marked as *; p<0.01 and p<0.001 were both considered highly significant and marked as ** and ***, respectively.
A RIPA buffer (50 mM Tris.HCl, pH 8.0, 280 mM NaCl, 0.5% NP-40, 1% C24H39NaO4, 0.2 mM EDTA, 2 mM EGTA and 10% glycerol) supplemented with protease inhibitors (Millipore-Sigma, catalog #S8830) and phosphatase inhibitors (Millipore-Sigma, catalog #4906845001) was used to lyse the brain tissues and cultured cells with brief sonication on ice. Protein concentrations of the lysates were determined using a Bio-Rad DC protein assay kit (Bio-Rad, catalog #5000111). […]

α7−/−iTat mice = assay: PAM neuroprotection in α7 nAChR knockout iTat mice; conditions: mouse, in vivo
Text: as §1
Open Field Test (OPT) and Morris Water Maze (MWZ) were performed sequentially using a computerized video tracking system (Anymaze, Stoelting) to determine the spontaneous locomotor activity and spatial learning and memory, respectively. For OPT, each mouse was allowed to move freely around a clear acrylic chamber (40.5×40.5×30.5 cm) for 10 minutes. Travel distance and maximum speed was determined by the AnyMaze software. […]

COc1cc(OC)c(NC(=O)Nc2cc(C)on2)cc1Cl [PAM, 1-(5-chloro-2,4-dimethoxy-phenyl)-3-(5-methyl-isoxazol-3-yl)-urea]
OPT maximum speed (iTat mice; Wt and iTat mice): increases of the maximum speed of male Wt mice but not other mice | OPT total travel distance (iTat mice; Wt mice): some improvement of the travel distance of Wt mice | OPT total travel distance (iTat mice; iTat mice): improvement of the travel distance of iTat mice | p38 and p-p38α (MAPK signaling pathways; CORT and HIP): increases of both p38 and p-p38α in both CORT and HIP | p-ERK (MAPK signaling pathways; CORT and HIP, iTat and Wt mice): no differences of p-ERK in CORT and HIP of both iTat and Wt mice | JNK (MAPK signaling pathways; CORT, Wt and iTat mice): increases of JNK in CORT of Wt mice, increases of JNK in CORT of iTat mice | p-JNK (MAPK signaling pathways; CORT, all mice): no differences of p-JNK in CORT of all mice | JNK and p-JNK (MAPK signaling pathways; HIP, all mice): increases of JNK and p-JNK in HIP of all mice | ERK (MAPK signaling pathways; HIP, iTat mice): decreases of ERK in HIP of iTat mice | α7 nAChR expression (α7 nAChR; cortex of iTat mice): increased in cortex | α7 nAChR expression (α7 nAChR; hippocampus of iTat mice): only decreased in hippocampus by both Tat expression and PAM treatment | Neuroprotective effects against locomotor, learning and memory deficits (α7−/−iTat mice): abolished
